From PubChem BioAssay AID1259411 (Chemical Carcinogenesis Research Information System (CCRIS), 2018)
Active and inactive are the calls of the source. No rule for the calls is given here.

Tested on: rodent carcinogenicity bioassays, tumor incidence
Experiment: CCRIS carcinogenicity studies
Outline: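 Archive of carcinogenicity, mutagenicity, tumor promotion and tumor inhibition results drawn from journals, NCI reports and other sources, expert-reviewed; covers 1985-2011 and is no longer updated.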

Measured: carcinogen call

CC(C)CON=O
active: Species: MOUSE, Strain/Sex: B6C3F1/FEMALE, Route: INHALATION, Dose: 0, 158, 315, 630 MG/M3 6 HR/D 5 D/WK FOR 103 WK (STUDY DURATION: 104 WK), Dose: 0, 158, 315, 630 MG/M3 6 HR/D 5 D/WK FOR 103 WK (STUDY DURATION: 104 WK), Tumor Site: Type of Lesion: LUNG: ALVEOLAR/BRONCHIOLAR ADENOMA, ALVEOLAR/BRONCHIOLAR ADENOMA OR CARCINOMA active; positive | Species: MOUSE, Strain/Sex: B6C3F1/MALE, Route: INHALATION, Dose: 0, 158, 315, 630 MG/M3 6 HR/D 5 D/WK FOR 103 WK (STUDY DURATION: 104 WK), Dose: 0, 158, 315, 630 MG/M3 6 HR/D 5 D/WK FOR 103 WK (STUDY DURATION: 104 WK), Tumor Site: Type of Lesion: LUNG: ALVEOLAR/BRONCHIOLAR ADENOMA, ALVEOLAR/BRONCHIOLAR ADENOMA OR CARCINOMA active; positive | Species: RAT, Strain/Sex: F344/FEMALE, Route: INHALATION, Dose: 0, 158, 315, 630 MG/M3 6 HR/D 5 D/WK FOR 103 WK (STUDY DURATION: 105 WK), Dose: 0, 158, 315, 630 MG/M3 6 HR/D 5 D/WK FOR 103 WK (STUDY DURATION: 105 WK), Tumor Site: Type of Lesion: LUNG: ALVEOLAR/BRONCHIOLAR ADENOMA, ALVEOLAR/BRONCHIOLAR CARCINOMA OR ADENOMA active; positive | Species: RAT, Strain/Sex: F344/MALE, Route: INHALATION, Dose: 0, 158, 315, 630 MG/M3 6 HR/D 5 D/WK FOR 103 WK (STUDY DURATION: 105 WK), Dose: 0, 158, 315, 630 MG/M3 6 HR/D 5 D/WK FOR 103 WK (STUDY DURATION: 105 WK), Tumor Site: Type of Lesion: LUNG: ALVEOLAR/BRONCHIOLAR ADENOMA, ALVEOLAR/BRONCHIOLAR CARCINOMA active; positive

O=C(O)CCCc1ccc(N(CCCl)CCCl)cc1
active: Species: HUMAN, Route: ORAL, Tumor Site: Type of Lesion: HEMATOPOIETIC SYSTEM (LEUKEMIA) active; positive | Species: MOUSE, Strain/Sex: BALB/FEMALE, Route: INTRAGASTRIC, Dose: 0, 1 MG/KG SUSPENDED IN WATER 5/WK FOR 12 WK (STUDY DURATION: 120 WK), Tumor Site: Type of Lesion: LUNG: ADENOMA active; positive | Species: MOUSE, Strain/Sex: BALB/FEMALE, Route: INTRAGASTRIC, Dose: 0, 1 MG/KG SUSPENDED IN WATER 5/WK FOR 12 WK (STUDY DURATION: 120 WK), Tumor Site: Type of Lesion: LYMPHORETICULAR SYSTEM: TUMOR active; positive | Species: MOUSE, Strain/Sex: BALB/FEMALE, Route: INTRAGASTRIC, Dose: 0, 1 MG/KG SUSPENDED IN WATER 5/WK FOR 12 WK (STUDY DURATION: 120 WK), Tumor Site: Type of Lesion: MAMMARY GLAND: ADENOMA OR ADENOCANTHOMA active; positive | Species: MOUSE, Strain/Sex: BALB/MALE, Route: INTRAGASTRIC, Dose: 0, 1 MG/KG SUSPENDED IN WATER 5/WK FOR 12 WK (STUDY DURATION: 120 WK), Tumor Site: Type of Lesion: LUNG: ADENOMA active; positive | Species: MOUSE, Strain/Sex: BALB/MALE, Route: INTRAGASTRIC, Dose: 0, 1 MG/KG SUSPENDED IN WATER 5/WK FOR 12 WK (STUDY DURATION: 120 WK), Tumor Site: Type of Lesion: LYMPHORETICULAR SYSTEM: TUMOR active; positive | Species: MOUSE, Strain/Sex: STRAIN-A/MALE,FEMALE, Route: INTRAPERITONEAL, Dose: 9.6, 37, 150, 420 MG/KG (TOTAL DOSES) IN 0.5% ACACIA OR 0.01% TRICAPRYLIN SOLN 3/WK FOR 4 WK, Dose: 9.6, 37, 150, 420 MG/KG (TOTAL DOSES) IN 0.5% ACACIA OR 0.01% TRICAPRYLIN SOLN 3/WK FOR 4 WK, Tumor Site: Type of Lesion: LUNG: ADENOMA, ADENOCARCINOMA active; positive | Species: MOUSE, Strain/Sex: SWISS/FEMALE, Route: INTRAPERITONEAL, Dose: 1.5, 3.0 MG/KG 3/WK FOR 6 MO, Tumor Site: Type of Lesion: LUNG: ADENOMA, LYMPHATIC SYSTEM: LYMPHOSARCOMA, OVARIES, Tumor Site: Type of Lesion: LUNG: ADENOMA, LYMPHATIC SYSTEM: LYMPHOSARCOMA, OVARIES active; positive | Species: MOUSE, Strain/Sex: SWISS/MALE, Route: INTRAPERITONEAL, Dose: 1.5, 3.0 MG/KG 3/WK FOR 6 MO, Tumor Site: Type of Lesion: HEMATOPOIETIC SYSTEM (LEUKEMIA), LYMPHATIC SYSTEM: LYMPHOSARCOMA, LUNG: ADENOMA, Tumor Site: Type of Lesion: HEMATOPOIETIC SYSTEM (LEUKEMIA), LYMPHATIC SYSTEM: LYMPHOSARCOMA, LUNG: ADENOMA active; positive | Species: RAT, Strain/Sex: CD-1/MALE, Route: INTRAPERITONEAL, Dose: 2.2, 4.5 MG/KG 3/WK FOR 6 MO, Tumor Site: Type of Lesion: HEMATOPOIETIC SYSTEM (LEUKEMIA), LYMPHATIC SYSTEM: LYMPHOSARCOMA, RETICULAR CELL SARCOMA active; positive | Species: RAT, Strain/Sex: SPRAGUE-DAWLEY/FEMALE, Route: GAVAGE, Dose: 0, 3 MG/KG ADMINISTERED 1, 2, 4.5 OR 9 TIMES PER MO FOR 18 MO TO GIVE MEDIAN TOTAL DOSES OF 54, 108, 234, 425 MG/KG (STU, Dose: 0, 3 MG/KG ADMINISTERED 1, 2, 4.5 OR 9 TIMES PER MO FOR 18 MO TO GIVE MEDIAN TOTAL DOSES OF 54, 108, 234, 425 MG/KG (STU, Tumor Site: Type of Lesion: MAMMARY GLAND: TUMOR, NERVOUS SYSTEM: TUMOR, EAR CANAL: TUMOR, Tumor Site: Type of Lesion: MAMMARY GLAND: TUMOR, NERVOUS SYSTEM: TUMOR, EAR CANAL: TUMOR active; positive

CC(=O)Nc1nc(-c2ccc([N+](=O)[O-])o2)cs1
active: Species: HAMSTER, Route: ORAL, Tumor Site: Type of Lesion: FORESTOMACH, URINARY BLADDER active; positive | Species: MOUSE, Route: ORAL, Tumor Site: Type of Lesion: FORESTOMACH, HEMATOPOIETIC SYSTEM (LEUKEMIA), LYMPHATIC SYSTEM: LYMPHATIC LEUKEMIA, Tumor Site: Type of Lesion: FORESTOMACH, HEMATOPOIETIC SYSTEM (LEUKEMIA), LYMPHATIC SYSTEM: LYMPHATIC LEUKEMIA active; positive | Species: RAT, Route: ORAL, Tumor Site: Type of Lesion: MAMMARY GLAND, LUNG, SALIVARY GLAND, Tumor Site: Type of Lesion: MAMMARY GLAND, LUNG, SALIVARY GLAND active; positive

C=C(C)C(N)=O
active: Species: MOUSE, Strain/Sex: DDY, Route: INTRAPERITONEAL, Dose: 0, 2.35 MMOL/KG 1/2 D FOR 5 DOSES (STUDY DURATION: 6 MO), Tumor Site: Type of Lesion: LUNG: ADENOMA active; positive | Species: MOUSE, Strain/Sex: DDY, Route: INTRAPERITONEAL, Dose: 0, 2.35 MMOL/KG 1/D FOR 5 D (STUDY DURATION: 6 MO), Tumor Site: Type of Lesion: LUNG: ADENOMA active; positive
